Laboratory results published in patent US12384771B2, “Pleuromutilin derivative containing thiazole-pyridine benzyl quaternary ammonium salt side chain and preparation method and use thereof” (SHAANXI UNIVERSITY OF SCIENCE AND TECHNOLOGY, priority 2022, dated 2025).
Values after ≈ are worked out from the molar mass of the structure shown. Counter-ions that a name gives are not always drawn. Like-named read-outs stand apart in the source and are kept apart here.

Experiments:
Salmonella ATCC 14028 = experiment: MIC, microbroth dilution, standard strains; assay type: cell-based
Experimental: (§1) The minimum inhibitory concentration (MIC) of the pleuromutilin derivative containing thiazole-pyridine benzyl quaternary ammonium salt side chain was tested with moxifloxacin as a positive control (purchased from Shanghai Macklin Biochemical Technology Co., Ltd.) using a microbroth dilution method.
(§2) Standard strains include gram-positive bacteria: Staphylococcus epidermidis ATCC 12228, Staphylococcus aureus ATCC 29213, ATCC 25923 and methicillin-resistant Staphylococcus aureus ATCC 33591; gram-negative bacteria: Salmonella ATCC 14028, Acinetobacter baumannii ATCC 19606, Escherichia coli ATCC 25922 and CMCC 44103, all the strains were purchased from the American Type Culture Collection.

[1] = tested on: methicillin-resistant Staphylococcus aureus ATCC 33591; experiment: MIC, microbroth dilution, standard strains; assay type: cell-based
Experimental: as §1, §2

[2] = tested on: Staphylococcus epidermidis ATCC 12228; experiment: MIC, microbroth dilution, standard strains; assay type: cell-based
Experimental: as §1, §2

[3] = tested on: Staphylococcus aureus ATCC 25923; experiment: MIC, microbroth dilution, standard strains; assay type: cell-based
Experimental: as §1, §2

[4] = tested on: Staphylococcus aureus ATCC 29213; experiment: MIC, microbroth dilution, standard strains; assay type: cell-based
Experimental: as §1, §2

[5] = tested on: Acinetobacter baumannii ATCC 19606; experiment: MIC, microbroth dilution, standard strains; assay type: cell-based
Experimental: as §1, §2

[6] = tested on: Escherichia coli ATCC 25922; experiment: MIC, microbroth dilution, standard strains; assay type: cell-based
Experimental: as §1, §2

[7] = tested on: Escherichia coli CMCC 44103; experiment: MIC, microbroth dilution, standard strains; assay type: cell-based
Experimental: as §1, §2

physchem = conditions: thermodynamic from solid
Experimental: Experimental method: representative compounds 2, 4 and 7 were selected for solubility determination, and retapamulin hydrochloride was used as a control. 1 mg of each sample was taken and quantitatively dissolved in a 10 mL volumetric flask, and the absorption peak area was measured by a high-performance liquid chromatography; then, the saturated solutions of the representative compounds 2, 4 and 7 and the control drug retapamulin were diluted 10-fold, and the absorption peak area was determined by HPLC; their respective solubility was obtained by calculating the absorption peak area.
The experimental instrument was Shimadzu LC-16, the chromatographic column was Hypersil C18 ODS (4.6×250 mm×5 μm), the flow rate was 1.0 mL/min, the detection wavelength was 300 nm, and the mobile phase was 0.05 mol/L of aqueous acetic acid solution:acetonitrile=30:70.

[8] = tested on: vancomycin-resistant Enterococcus faecalis (VRE) 18-507; experiment: MIC, clinical drug-resistant bacteria; assay type: cell-based; conditions: read-out: Minimum inhibitory concentration against clinical drug-resistant bacteria
Experimental: (§3) The minimum inhibitory concentration (MIC) of the pleuromutilin derivative containing thiazole-pyridine benzyl quaternary ammonium salt side chain was tested with moxifloxacin as a positive control (purchased from Shanghai Macklin Biochemical Technology Co., Ltd.) using a microbroth dilution method. At the same time, the pleuromutilin derivative containing thiazole-pyridine benzyl quaternary ammonium salt side chain of the invention was compared with the marketed pleuromutilin antibiotics, such as retapamulin (purchased from Nanjing Chemlin Chemical Industry Co., Ltd.), tiamulin (purchased from Shanghai Yuanye Bio-Technology Co., Ltd) and valnemulin (purchased from Shanghai Acmec Biochemical Co., Ltd), in order to screen out pleuromutilin derivatives with better activity.
(§4) Clinical resistant bacteria include multidrug-resistant Pseudomonas aeruginosa (MDR-PA) 18-993, 18-756 and 18-126, multidrug-resistant Klebsiella pneumoniae (MDR-KP) 18-893, 18-754 and 18-1482, methicillin-resistant Staphylococcus aureus (MRSA) 18-171, 18-209 and 18-575, vancomycin-resistant Enterococcus faecalis (VRE) 18-94, 18-80 and 18-507, and carbapenem-resistant Acinetobacter baumannii (CR-AB) 18-184, 18-560 and 18-882, all the clinical drug-resistant strains were from Huashan Hospital, Fudan University.

[9] = tested on: multidrug-resistant Klebsiella pneumoniae (MDR-KP) 18-1482; experiment: MIC, clinical drug-resistant bacteria; assay type: cell-based
Experimental: as §3, §4

[10] = tested on: multidrug-resistant Klebsiella pneumoniae (MDR-KP) 18-754; experiment: MIC, clinical drug-resistant bacteria; assay type: cell-based
Experimental: as §3, §4

[11] = tested on: vancomycin-resistant Enterococcus faecalis (VRE) 18-80; experiment: MIC, clinical drug-resistant bacteria; assay type: cell-based; conditions: read-out: Minimum inhibitory concentration against clinical drug-resistant bacteria
Experimental: as §3, §4

[12] = tested on: multidrug-resistant Pseudomonas aeruginosa (MDR-PA) 18-126; experiment: MIC, clinical drug-resistant bacteria; assay type: cell-based
Experimental: as §3, §4

[13] = tested on: carbapenem-resistant Acinetobacter baumannii (CR-AB) 18-560; experiment: MIC, clinical drug-resistant bacteria; assay type: cell-based
Experimental: as §3, §4

[14] = tested on: carbapenem-resistant Acinetobacter baumannii (CR-AB) 18-882; experiment: MIC, clinical drug-resistant bacteria; assay type: cell-based
Experimental: as §3, §4

[15] = tested on: methicillin-resistant Staphylococcus aureus (MRSA) 18-575; experiment: MIC, clinical drug-resistant bacteria; assay type: cell-based
Experimental: as §3, §4

[16] = tested on: multidrug-resistant Pseudomonas aeruginosa (MDR-PA) 18-756; experiment: MIC, clinical drug-resistant bacteria; assay type: cell-based
Experimental: as §3, §4

[17] = tested on: methicillin-resistant Staphylococcus aureus (MRSA) 18-209; experiment: MIC, clinical drug-resistant bacteria; assay type: cell-based
Experimental: as §3, §4

[18] = tested on: carbapenem-resistant Acinetobacter baumannii (CR-AB) 18-184; experiment: MIC, clinical drug-resistant bacteria; assay type: cell-based
Experimental: as §3, §4

[19] = tested on: methicillin-resistant Staphylococcus aureus (MRSA) 18-171; experiment: MIC, clinical drug-resistant bacteria; assay type: cell-based
Experimental: as §3, §4

[20] = tested on: vancomycin-resistant Enterococcus faecalis (VRE) 18-94; experiment: MIC, clinical drug-resistant bacteria; assay type: cell-based; conditions: read-out: Minimum inhibitory concentration against clinical drug-resistant bacteria
Experimental: as §3, §4

[21] = tested on: multidrug-resistant Klebsiella pneumoniae (MDR-KP) 18-893; experiment: MIC, clinical drug-resistant bacteria; assay type: cell-based
Experimental: as §3, §4

[22] = tested on: multidrug-resistant Pseudomonas aeruginosa (MDR-PA) 18-993; experiment: MIC, clinical drug-resistant bacteria; assay type: cell-based
Experimental: as §3, §4

[23] = ATCC14028, ATCC 14028, read-out: Minimum inhibitory concentration
[24] = ATCC33591, ATCC 33591, read-out: Minimum inhibitory concentration
[25] = ATCC12228, ATCC 12228, read-out: Minimum inhibitory concentration
[26] = ATCC25923, ATCC 25923, read-out: Minimum inhibitory concentration
[27] = ATCC29213, ATCC 29213, read-out: Minimum inhibitory concentration
[28] = ATCC19606, ATCC 19606, read-out: Minimum inhibitory concentration
[29] = ATCC25922, ATCC 25922, read-out: Minimum inhibitory concentration
[30] = CMCC44103, CMCC 44103, read-out: Minimum inhibitory concentration
[31] = pH 1.5, simulated gastric fluid
[32] = ATCC14028, read-out: Minimum inhibitory concentration
[33] = ATCC33591, read-out: Minimum inhibitory concentration
[34] = ATCC12228, read-out: Minimum inhibitory concentration
[35] = ATCC25923, read-out: Minimum inhibitory concentration
[36] = ATCC29213, read-out: Minimum inhibitory concentration
[37] = ATCC19606, read-out: Minimum inhibitory concentration
[38] = ATCC25922, read-out: Minimum inhibitory concentration
[39] = CMCC44103, read-out: Minimum inhibitory concentration
[40] = read-out: Minimum inhibitory concentration against clinical drug-resistant bacteria
[41] = MRSA, read-out: Minimum inhibitory concentration against clinical drug-resistant bacteria

SMILES	MIC (Salmonella ATCC 14028; [23])	MIC [1, 24]	MIC [2, 25]	MIC [3, 26]	MIC [4, 27]	MIC [5, 28]	MIC [6, 29]	MIC [7, 30]	solubility (physchem; organic solvent or mixture)	solubility (physchem; [31])	solubility (physchem; pH 7, water)	MIC (Salmonella ATCC 14028; [32])	MIC [1, 33]	MIC [2, 34]	MIC [3, 35]	MIC [4, 36]	MIC [5, 37]	MIC [6, 38]	MIC [7, 39]	further results
C=C[C@]1(C)C[C@@H](OC(=O)CSc2nc(-c3cc[n+](Cc4ccc(C)cc4)cc3)cs2)[C@]2(C)[C@H](C)CC[C@]3(CCC(=O)[C@H]32)[C@@H](C)[C@@H]1O [Compound 2, 1-(4-Methylbenzyl)-4-(2-((2-((8-hydroxy-4,7,9,12-tetramethyl-3-oxo-7-vinyldecahydro-4,9a-propancyclopent[8]cyclen-5-yl)oxy)-2-oxoethyl)thio)thiazol-4-yl)pyridyl bromide salt]	2 µg/mL	1 µg/mL	1 µg/mL	0.0625 µg/mL	0.0625 µg/mL	1 µg/mL	0.0625 µg/mL	0.5 µg/mL	13200 µg/mL	2760 µg/mL	2020 µg/mL	–	–	–	–	–	–	–	–	MIC ([8]; VRE 18-507): > 128 µg/mL; MIC ([9]; MDR-KP 18-1482, read-out: Minimum inhibitory concentration against clinical drug-resistant bacteria): 64 µg/mL; MIC ([10]; MDR-KP 18-754, read-out: Minimum inhibitory concentration against clinical drug-resistant bacteria): 32 µg/mL; MIC ([11]; VRE 18-80): 2 µg/mL; MIC ([12]; MDR-PA 18-126, read-out: Minimum inhibitory concentration against clinical drug-resistant bacteria): 64 µg/mL; MIC ([13]; CR-AB 18-560, read-out: Minimum inhibitory concentration against clinical drug-resistant bacteria): > 128 µg/mL; MIC ([14]; CR-AB 18-882, read-out: Minimum inhibitory concentration against clinical drug-resistant bacteria): 8 µg/mL; MIC ([15]; MRSA 18-575, read-out: Minimum inhibitory concentration against clinical drug-resistant bacteria): > 128 µg/mL; MIC ([16]; MDR-PA 18-756, read-out: Minimum inhibitory concentration against clinical drug-resistant bacteria): 128 µg/mL; MIC ([17]; MRSA 18-209, read-out: Minimum inhibitory concentration against clinical drug-resistant bacteria): 128 µg/mL; MIC ([18]; CR-AB 18-184, read-out: Minimum inhibitory concentration against clinical drug-resistant bacteria): 16 µg/mL; MIC ([19]; MRSA 18-171, read-out: Minimum inhibitory concentration against clinical drug-resistant bacteria): 4 µg/mL; MIC ([20]; VRE 18-94): > 128 µg/mL; MIC ([21]; MDR-KP 18-893, read-out: Minimum inhibitory concentration against clinical drug-resistant bacteria): 16 µg/mL; MIC ([22]; MDR-PA 18-993, read-out: Minimum inhibitory concentration against clinical drug-resistant bacteria): 128 µg/mL
C=C[C@]1(C)C[C@@H](OC(=O)CSc2nc(-c3cc[n+](Cc4cc(F)cc(F)c4)cc3)cs2)[C@]2(C)[C@H](C)CC[C@]3(CCC(=O)[C@H]32)[C@@H](C)[C@@H]1O [Compound 15, 1-(3,5-difluorobenzyl)-4-(2-(8-hydroxy-4,7,9,12-tetramethyl-3-oxo-7-vinyldecahydro-4,9a-propancyclopent[8]cyclen-5-yl)oxy)-2-oxoethyl)thiazol-4-yl)pyridyl bromide salt]	16 µg/mL	64 µg/mL	32 µg/mL	128 µg/mL	64 µg/mL	8 µg/mL	16 µg/mL	32 µg/mL	–	–	–	–	–	–	–	–	–	–	–	–
C=C[C@]1(C)C[C@@H](OC(=O)CS[C@@H]2C[C@H]3CC[C@@H](C2)N3C)[C@]2(C)[C@H](C)CC[C@]3(CCC(=O)[C@H]32)[C@@H](C)[C@@H]1O [Retapamulin hydrochloride, retapamulin hydrochloride, reference compound]	–	–	–	–	–	–	–	–	1150 µg/mL	230 µg/mL	120 µg/mL	–	–	–	–	–	–	–	–	–
C=C[C@]1(C)C[C@@H](OC(=O)CS[C@@H]2C[C@H]3CC[C@@H](C2)N3C)[C@]2(C)[C@H](C)CC[C@]3(CCC(=O)[C@H]32)[C@@H](C)[C@@H]1O [Retapamulin, retapamulin, reference compound]	–	–	–	–	–	–	–	–	–	–	–	128 µg/mL (≈ 247 µM)	32 µg/mL (≈ 61.8 µM)	32 µg/mL (≈ 61.8 µM)	4 µg/mL (≈ 7.73 µM)	4 µg/mL (≈ 7.73 µM)	16 µg/mL (≈ 30.9 µM)	32 µg/mL (≈ 61.8 µM)	32 µg/mL (≈ 61.8 µM)	MIC [8]: > 128 µg/mL; MIC [9, 40]: 64 µg/mL (≈ 124 µM); MIC [10, 40]: 128 µg/mL (≈ 247 µM); MIC [11]: > 128 µg/mL; MIC [12, 40]: 128 µg/mL (≈ 247 µM); MIC [13, 40]: 128 µg/mL (≈ 247 µM); MIC [14, 40]: 64 µg/mL (≈ 124 µM); MIC [15, 41]: > 128 µg/mL; MIC [16, 40]: > 128 µg/mL; MIC [17, 41]: 128 µg/mL (≈ 247 µM); MIC [18, 40]: 128 µg/mL (≈ 247 µM); MIC [19, 41]: 128 µg/mL (≈ 247 µM); MIC [20]: > 128 µg/mL; MIC [21, 40]: 64 µg/mL (≈ 124 µM); MIC [22, 40]: 128 µg/mL (≈ 247 µM)
C=C[C@]1(C)C[C@@H](OC(=O)CSC(C)(C)CNC(=O)[C@H](N)C(C)C)[C@]2(C)[C@H](C)CC[C@]3(CCC(=O)[C@H]32)[C@@H](C)[C@@H]1O [Valnemulin, valnemulin, reference compound]	–	–	–	–	–	–	–	–	–	–	–	64 µg/mL (≈ 113 µM)	> 128 µg/mL	64 µg/mL (≈ 113 µM)	4 µg/mL (≈ 7.08 µM)	2 µg/mL (≈ 3.54 µM)	2 µg/mL (≈ 3.54 µM)	16 µg/mL (≈ 28.3 µM)	64 µg/mL (≈ 113 µM)	–
